Reference: a melting point compilation (Tetko et al.; mined from patent text by program, amines drawn as free bases though some values may be those of a salt)

melting point [°C]	Compound
130 to 132	CC(OC1CN(C(N)=O)C1)c1cccc(C(F)(F)F)c1 (stereo not given)
> 250	Cn1ncc(C(=O)c2ccc(S(C)(=O)=O)c(C3=NOCC3)c2Cl)c1O
166 to 167	CC(C)Oc1ccc(C2CCc3cccc(C(=O)O)c3N2)cc1 (stereo not given)
113	CNC(=O)c1snc(-c2cccc(C(F)(F)F)c2)c1N
162 to 163	COc1ccc(Cc2c(C(=O)O)n(CC3CC3)c3ccccc23)cc1
151 to 153	COc1ccc(NCC(O)CO)cc1 (stereo not given)
161 to 162	COc1ccc(C(=O)c2cccc(F)c2F)c(O)c1Cl
227 to 229	CCN(CC)c1ccc2cc(C(=O)O)c(=O)oc2c1
130	COC=C(C(=O)OC)c1csc2ccc(COc3ccccc3)cc12
124 to 125	CCC(CC)N(O)C(=O)Nc1ccc(Oc2ccccc2)cc1
180 to 182	CCc1cnc2c(NC(=O)c3c(Cl)cccc3Cl)cccc2c1CCO
77.4 to 79.8	COc1ccc(C2=CCCC(=O)O2)cc1
254 to 256	Nc1ccc(Sc2c(NCc3ccccc3)cc(C(=O)O)cc2S(N)(=O)=O)cc1
197 to 199	CONC(=O)c1ccc(-c2ccc3nnn(Cc4ccc5ncccc5c4)c3n2)cc1F
92 to 92.5	CCOC(=O)/C=C/c1ccc(OCCOC)c(C)c1OCc1ccc(Cl)cc1Cl
51 to 54	O=C(CO)c1ccccc1F
153 to 155	CCCCn1c(=O)c(NC(=O)Nc2c(C(C)C)cc(N)cc2C(C)C)c(-c2cccc(OCCCO)c2)c2cccnc21
170 to 172	CN1CCN(C(=O)c2cc3ccccc3c(=O)[nH]2)CC1
128 to 130	CCOC(=O)C1=NN(c2ccc(Cl)cc2)C(c2ccc(Cl)cc2)C1 (stereo not given)
160 to 161	CSC(Oc1cc(Cl)c2ncc(Br)cc2c1)C(=O)NC(C)(C)C (stereo not given)
110 to 111	CC(=O)Nc1ccc(O[C@H](c2ccc([N+](=O)[O-])cc2)[C@@H](O)CO)cc1
100 to 101	COC(=O)CC(O)CP(=O)(C#Cc1c(C(C)C)c2n(c1-c1ccc(F)cc1)CCCC2)OC (stereo not given)
142	CC(C)(c1cc(Cl)ccc1O)c1cc(Cl)ccc1O
201 to 202	Cn1cc(C(=O)C(Cl)Cl)c(=O)c(-c2cccc(Cl)c2)c1
> 210	COc1ccnc2[nH]cc(-c3ccnc(N)n3)c12
96 to 97	O=C(c1ccccc1)c1cc[nH]c1

melting point [°C]	Compound
232 to 234	Cc1cc(I)ccc1NC1=CC2=NCN(C)C2=CC1(F)C(=O)NN (stereo not given)
94.5 to 96	COCc1nc(C(C)(C)O)c(C(=O)OC)[nH]1
170	CC(C)c1ccc(S(=O)(=O)n2c(Cc3cccc(C(=O)O)c3)cc3cc(Cl)ccc32)cc1
188 to 190	CC(C)c1ccc(NC(=O)c2ccc(C(=O)O)cn2)cc1C(C)C
78 to 80	CCC(Oc1ccc2ncccc2c1)C(=O)O (stereo not given)
138 to 141	C[C@]1(F)C(=O)O[C@H](COC(=O)c2ccc(Cl)cc2)[C@H]1OC(=O)c1ccc(Cl)cc1
72.5 to 73.5	O=C(SCSc1c[nH]nn1)c1ccccc1
155	CCCc1c(OCCOc2cccc(C(=O)O)c2)ccc(C(C)=O)c1O
133 to 136	CC(=O)c1cc(C(=O)OCc2ccco2)c(C2=NC(C)(C(C)C)C(=O)N2)nc1C (stereo not given)
110 to 112	CCOC(=O)C(C)c1ccc(-c2cn3ccccc3n2)cc1 (stereo not given)
60 to 61	CCOC(=O)CC(C)N=c1sc2ccc(Cl)cc2s1 (stereo not given)
171 to 172	CC(C)(C)OC(=O)N1CCN(c2c(F)cc(NC(=O)OCc3ccccc3)cc2F)CC1
107 to 109	O=S(=O)(c1ccc(Cl)cc1)C(c1cc(F)ccc1F)C1CCCCC1 (stereo not given)
32 to 34	C#CCOc1ccc(C)nc1
219 to 222	Nc1cc(Oc2ccc3c(C(=O)Nc4ccc(F)c(C(F)(F)F)c4)nccc3c2)ncn1
98 to 100	CC(C)OC(=O)C=Cc1cc(N)ccc1Cl
129 to 133	C[C@H]1Oc2ccc(F)cc2N(C)C(=O)[C@H]1NC(=O)OC(C)(C)C
202 to 203	Nc1ccc2c(c1)ncn2-c1ccccc1O
108 to 109	Cc1c(NCc2ccccc2)cc2c(c1C)OCC2c1ccc(C(C)C)cc1 (stereo not given)
84 to 85	COCN1C(C)=C(C(=O)O)[C@H](c2cccc([N+](=O)[O-])c2)C(C(=O)OCOC(=O)C(C)(C)C)=C1C
80 to 85	COC(=O)c1nc(NC(C)=O)ccc1Oc1nc(OC)cc(OC)n1
132 to 133	Cc1cccc(NC(=O)NC2N=C(C(C)C)c3cccc(C)c3N(CC(=O)N3CCCCCCC3)C2=O)c1 (stereo not given)
96 to 97	CN(C)CCCCCCc1ccc(NC=NO)cc1
174 to 176	CCC(=O)c1ccc2c(c1)OCC(=O)N2
113 to 115	CC(C)c1c(C(=O)Cl)n(-c2ccc(F)cc2)c(=O)c2ccccc12

The next lines start with the molecule.

Compound	melting point [°C]
COc1ccc(C(C)OC)c(OC)c1C(O)c1cn(C(c2ccccc2)(c2ccccc2)c2ccccc2)cn1 (stereo not given)	96 to 99
CCCCCCCCCCCCCCCCCCc1c(C(=O)OCC)[nH]c(C)c1C	78 to 80
C[C@H]1CCCC(C)(C)[C@@H]1C(=O)c1c(F)c(F)c(F)c(F)c1F	35.2 to 38
Nc1nc2ccccc2c2c1ncn2CCNC(=O)CCCCC1SCC2NC(=O)NC21 (stereo not given)	169
COc1cccc([C@H]2O[C@H](CC(=O)Nc3nc(C)c(C(=O)OC(C)(C)C)s3)C(=O)N(CC(C)(C)COC(C)=O)c3ccc(Cl)cc32)c1OC	211 to 213
CN1CCC(c2c[nH]c3ccc(NC(=O)C4CCC4)nc23)CC1	104
CC(=O)OCC(=O)N(C)C	52 to 53
O=Cc1ccc(OCc2coc(-c3ccccc3)n2)cc1	94 to 96
C=C1CC2(CN3CCC2CC3)SC1C (stereo not given)	164 to 168
CCOC(=O)N1CCN(C(=O)C2CCC(=O)N2)CC1 (stereo not given)	147 to 148
CC(C)(C)OC(=O)N1CO[C@@](O[Si](C)(C)C)(C(F)(F)F)[C@@H]1Cc1ccccc1	53 to 55
CC1(C)CCC[C@H](NC(c2ccccc2)(c2ccccc2)c2ccccc2)C(=O)N1	139 to 140
Cn1nc(-c2cc3nccnc3[nH]2)cc1-c1ccccc1	222 to 223
Cc1ccc(S(=O)(=O)OCC2Cc3cccc(-c4cc(C(F)(F)F)cc(C(F)(F)F)c4)c3O2)cc1 (stereo not given)	100 to 105
CCCNS(=O)(=O)c1ccc(Nc2nc(OCC3CCCCC3)c3nc[nH]c3n2)cc1	207 to 208
COc1cc(N2CCC(N3CCOCC3)CC2)ccc1Nc1ncc2ccc(-c3ccccc3S(C)(=O)=O)n2n1	111 to 112
CCOC(=O)Cc1c(C(=O)OCC)c(C)c(C(=O)OCC)n1CC	142 to 145
On1c(-c2ccccc2)csc1=S	149 to 151
O=C(Cc1ccc2ccccc2c1)N1CC=C(c2cccc(C(F)(F)F)c2)CC1	125 to 130
CC(C)(CCCCOc1cc(-c2ccccc2)cc(-c2ccccc2)n1)c1nnn[nH]1	160 to 162
C#CCN(C)c1nccc(Oc2ccc(NC(=O)c3cc(F)cc(N4CCOCC4)c3)c3ccccc23)n1	97 to 98
Cc1cccc(-c2n[nH]cc2-c2ccc(F)c(-c3ccc(OCCO)cn3)c2)n1	148 to 151
COc1ccc2c(c1)CCC1C2CCC2(C)C1CCC2N(C)CCCO (stereo not given)	122 to 124
CCOc1ncnc2c1sc1nc(N(C)C)c3c(c12)CC(C)(C)CC3	220 to 221
O=c1[nH]c(NCCCN(Cc2ccccc2)c2ccccn2)ncc1Cc1ccc(Cl)cc1	80 to 86

Compound	melting point [°C]
O=C(O)C1CC2CCC1c1[nH]c3ccccc3c12 (stereo not given)	212 to 214
CCN(CC)c1ccc(Nc2ncc3ccc(=O)n(CC)c3n2)cc1	108 to 109
Cc1nnc2n1-c1ccccc1C(c1ccc(Cl)cc1)=NN2Cc1ccc(NS(C)(=O)=O)cc1	273 to 275
NS(=O)(=O)c1cc2c(s1)SCCCC2=O	185 to 186
COc1cc(OC)nc(O[C@H]2CCCC[C@H]2C(=O)O)n1 (relative stereo)	151 to 152
CCCC1N(C)c2cccc3cccc(c23)N1C	70 to 71
c1ccn2nc(-c3ccncc3)nc2c1	188 to 190
Cc1cc(OCCCN2CCC[C@H]2C)ccc1C1=NNC(=O)CC1	121 to 123
OCCCCOc1ccc2cc(Nc3ccc(O)cc3)ccc2c1	132 to 135
CCCCCCCCCCCCn1nnc(C(C(=O)Nc2cc(C)c(O)c(C)c2C)c2ccccc2)n1 (single isomer, unassigned; (+))	105
Fc1ccc(-c2ccc3nnn(Cc4ccc5ncccc5c4)c3n2)cc1	153 to 156
CC(C)(C)c1cc(CCc2ccccc2NC(=O)NC2CCN(Cc3cccnc3)CC2)cc(C(C)(C)C)c1O	156 to 158
O=C1c2ccccc2C2C(c3ccccc31)C2(F)F (stereo not given)	150
CC(C)(C)c1ccc(S(=O)(=O)Nc2nc(-c3ncccn3)nc(Cl)c2-c2cccs2)cc1	130 to 132
Cn1ccc(-c2[nH]nc3c2C(=O)c2c(NC(N)=O)cccc2-3)c1	> 300
O=P1(Oc2ccccc2)CCCC(CI)O1 (stereo not given)	128
Cc1cc(-n2ccnc2)c2cccc(OCc3c(Cl)ccc(S(=O)(=O)N4CCC[C@H]4C(=O)N4CCN(Cc5ccncc5)CC4)c3Cl)c2n1	108
CCCCOc1c2c(nc3c1cnn3CC)CCc1ccccc1C2=O	113 to 115
Cc1cc2c(cc1C)=NC(=O)N=2	> 360
O=C1CCCCN1S(=O)(=O)c1ccc(N2CCCCCCC2)cc1	150 to 152
COc1cc(COc2nn(-c3ccccc3)cc2/C=C/c2nc(N3CCCCC3)sc2C)ccc1OCc1nc(-c2ccc(CC(=O)O)cc2)oc1C	146 to 148
CSc1ccc(C(CC(F)(F)F)=NO)cc1	106 to 107
O=C1N(Cc2ccccn2)c2cccc(Br)c2C12COc1cc3c(cc12)CCO3 (stereo not given)	> 200
Cc1cc(C#N)cc(C)c1Oc1ncnc(Nc2ccc(C#N)cc2)n1	248 to 250
